What was measured:
[1] = biological target: T1, SPTLC2 (Homo sapiens, UniProt O15270); assay: direct LC-MS/MS profiling of modified tryptic peptides; format: cell-based; conditions: covalent at Cys99; H358 cells, […] AMG510, […] h (methods print […] h)
T1 sequence (O15270 1-562): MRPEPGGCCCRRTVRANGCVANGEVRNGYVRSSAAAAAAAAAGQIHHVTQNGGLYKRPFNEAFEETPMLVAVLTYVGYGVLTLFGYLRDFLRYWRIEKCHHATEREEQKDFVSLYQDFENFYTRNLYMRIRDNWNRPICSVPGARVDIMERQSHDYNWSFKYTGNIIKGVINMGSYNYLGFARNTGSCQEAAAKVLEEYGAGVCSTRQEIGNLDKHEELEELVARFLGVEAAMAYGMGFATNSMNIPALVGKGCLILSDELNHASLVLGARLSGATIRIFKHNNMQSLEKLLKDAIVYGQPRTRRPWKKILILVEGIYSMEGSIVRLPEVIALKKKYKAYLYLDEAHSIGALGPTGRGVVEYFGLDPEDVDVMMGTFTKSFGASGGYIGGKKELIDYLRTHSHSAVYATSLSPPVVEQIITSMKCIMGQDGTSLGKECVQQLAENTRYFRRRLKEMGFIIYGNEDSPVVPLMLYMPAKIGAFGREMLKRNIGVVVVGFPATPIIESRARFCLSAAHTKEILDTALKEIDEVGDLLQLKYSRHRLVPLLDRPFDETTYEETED

[2] = biological target: PCBP1 (Homo sapiens, UniProt Q15365); assay: as above; format: cell-based; conditions: covalent at Cys194; H358 cells, […] AMG510, […] h (methods print […] h)
PCBP1, sequence (Q15365 whole entry): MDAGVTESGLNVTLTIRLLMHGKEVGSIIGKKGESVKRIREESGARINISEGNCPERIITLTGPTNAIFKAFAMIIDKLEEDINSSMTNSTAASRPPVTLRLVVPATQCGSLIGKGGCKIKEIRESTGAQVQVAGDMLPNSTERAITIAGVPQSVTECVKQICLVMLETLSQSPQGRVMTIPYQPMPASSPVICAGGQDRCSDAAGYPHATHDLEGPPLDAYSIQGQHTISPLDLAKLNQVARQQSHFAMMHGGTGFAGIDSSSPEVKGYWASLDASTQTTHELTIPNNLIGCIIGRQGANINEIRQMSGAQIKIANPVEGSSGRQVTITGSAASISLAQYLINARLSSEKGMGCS

[3] = biological target: ANXA2 (Homo sapiens, UniProt P07355); assay: as above; format: cell-based; conditions: covalent at Cys9; H358 cells, […] AMG510, […] h (methods print […] h)
ANXA2, sequence (P07355 2-339): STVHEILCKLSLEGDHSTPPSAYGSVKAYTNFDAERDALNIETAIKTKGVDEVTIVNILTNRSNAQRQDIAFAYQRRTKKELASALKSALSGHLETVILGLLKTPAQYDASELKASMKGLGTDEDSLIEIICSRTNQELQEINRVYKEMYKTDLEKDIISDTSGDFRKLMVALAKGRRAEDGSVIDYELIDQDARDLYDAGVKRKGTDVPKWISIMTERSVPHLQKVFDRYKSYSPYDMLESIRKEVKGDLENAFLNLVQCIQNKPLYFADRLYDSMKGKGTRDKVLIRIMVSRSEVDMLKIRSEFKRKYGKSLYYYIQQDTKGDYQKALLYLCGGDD

[4] = biological target: T2, HMOX2 (Homo sapiens, UniProt P30519); assay: as above; format: cell-based; conditions: covalent at Cys282; H358 cells, […] AMG510, […] h (methods print […] h)
T2 sequence (P30519 2-316): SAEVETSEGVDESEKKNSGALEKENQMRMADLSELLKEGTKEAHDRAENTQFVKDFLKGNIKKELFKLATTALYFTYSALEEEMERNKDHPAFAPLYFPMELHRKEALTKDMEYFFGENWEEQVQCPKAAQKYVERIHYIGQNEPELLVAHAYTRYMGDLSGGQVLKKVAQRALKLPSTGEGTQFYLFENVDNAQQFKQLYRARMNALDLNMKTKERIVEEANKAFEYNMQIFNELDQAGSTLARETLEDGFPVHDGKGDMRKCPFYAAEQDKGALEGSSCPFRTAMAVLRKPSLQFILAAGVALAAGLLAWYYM

[5] = biological target: T3, RAE1 (Homo sapiens, UniProt P78406); assay: as above; format: cell-based; conditions: covalent at Cys106; H358 cells, […] AMG510, […] h (methods print […] h)
T3 sequence (P78406 1-368): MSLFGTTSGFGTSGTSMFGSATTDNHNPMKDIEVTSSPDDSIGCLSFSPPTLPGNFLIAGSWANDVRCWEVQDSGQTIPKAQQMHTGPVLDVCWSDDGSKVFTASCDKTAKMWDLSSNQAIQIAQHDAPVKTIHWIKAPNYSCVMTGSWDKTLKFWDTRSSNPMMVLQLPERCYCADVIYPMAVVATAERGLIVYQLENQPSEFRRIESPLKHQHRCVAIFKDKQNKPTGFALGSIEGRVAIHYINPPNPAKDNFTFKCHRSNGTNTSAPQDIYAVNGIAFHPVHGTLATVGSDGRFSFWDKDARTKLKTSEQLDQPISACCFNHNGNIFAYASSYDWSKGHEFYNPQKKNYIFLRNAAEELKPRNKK

[6] = biological target: RPE (Homo sapiens, UniProt Q96AT9); assay: as above; format: cell-based; conditions: covalent at Cys5; H358 cells, […] AMG510, […] h (methods print […] h)
RPE, sequence (Q96AT9 2-228): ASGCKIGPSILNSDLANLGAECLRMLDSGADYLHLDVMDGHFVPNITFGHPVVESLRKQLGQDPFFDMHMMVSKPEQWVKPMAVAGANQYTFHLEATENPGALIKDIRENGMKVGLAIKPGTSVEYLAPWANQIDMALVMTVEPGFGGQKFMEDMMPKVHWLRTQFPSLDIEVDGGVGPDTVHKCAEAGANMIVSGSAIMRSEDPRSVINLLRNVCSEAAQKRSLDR

[7] = biological target: Ank2; ANK2 (Mus musculus, UniProt Q8C8R3); assay: anti-AMG510 peptide IP and LC-MS/MS of heart tissue; conditions: covalent at Cys3737; mice dosed orally […] mg/kg/day for […] days
Ank2; ANK2, sequence (Q8C8R3 whole entry): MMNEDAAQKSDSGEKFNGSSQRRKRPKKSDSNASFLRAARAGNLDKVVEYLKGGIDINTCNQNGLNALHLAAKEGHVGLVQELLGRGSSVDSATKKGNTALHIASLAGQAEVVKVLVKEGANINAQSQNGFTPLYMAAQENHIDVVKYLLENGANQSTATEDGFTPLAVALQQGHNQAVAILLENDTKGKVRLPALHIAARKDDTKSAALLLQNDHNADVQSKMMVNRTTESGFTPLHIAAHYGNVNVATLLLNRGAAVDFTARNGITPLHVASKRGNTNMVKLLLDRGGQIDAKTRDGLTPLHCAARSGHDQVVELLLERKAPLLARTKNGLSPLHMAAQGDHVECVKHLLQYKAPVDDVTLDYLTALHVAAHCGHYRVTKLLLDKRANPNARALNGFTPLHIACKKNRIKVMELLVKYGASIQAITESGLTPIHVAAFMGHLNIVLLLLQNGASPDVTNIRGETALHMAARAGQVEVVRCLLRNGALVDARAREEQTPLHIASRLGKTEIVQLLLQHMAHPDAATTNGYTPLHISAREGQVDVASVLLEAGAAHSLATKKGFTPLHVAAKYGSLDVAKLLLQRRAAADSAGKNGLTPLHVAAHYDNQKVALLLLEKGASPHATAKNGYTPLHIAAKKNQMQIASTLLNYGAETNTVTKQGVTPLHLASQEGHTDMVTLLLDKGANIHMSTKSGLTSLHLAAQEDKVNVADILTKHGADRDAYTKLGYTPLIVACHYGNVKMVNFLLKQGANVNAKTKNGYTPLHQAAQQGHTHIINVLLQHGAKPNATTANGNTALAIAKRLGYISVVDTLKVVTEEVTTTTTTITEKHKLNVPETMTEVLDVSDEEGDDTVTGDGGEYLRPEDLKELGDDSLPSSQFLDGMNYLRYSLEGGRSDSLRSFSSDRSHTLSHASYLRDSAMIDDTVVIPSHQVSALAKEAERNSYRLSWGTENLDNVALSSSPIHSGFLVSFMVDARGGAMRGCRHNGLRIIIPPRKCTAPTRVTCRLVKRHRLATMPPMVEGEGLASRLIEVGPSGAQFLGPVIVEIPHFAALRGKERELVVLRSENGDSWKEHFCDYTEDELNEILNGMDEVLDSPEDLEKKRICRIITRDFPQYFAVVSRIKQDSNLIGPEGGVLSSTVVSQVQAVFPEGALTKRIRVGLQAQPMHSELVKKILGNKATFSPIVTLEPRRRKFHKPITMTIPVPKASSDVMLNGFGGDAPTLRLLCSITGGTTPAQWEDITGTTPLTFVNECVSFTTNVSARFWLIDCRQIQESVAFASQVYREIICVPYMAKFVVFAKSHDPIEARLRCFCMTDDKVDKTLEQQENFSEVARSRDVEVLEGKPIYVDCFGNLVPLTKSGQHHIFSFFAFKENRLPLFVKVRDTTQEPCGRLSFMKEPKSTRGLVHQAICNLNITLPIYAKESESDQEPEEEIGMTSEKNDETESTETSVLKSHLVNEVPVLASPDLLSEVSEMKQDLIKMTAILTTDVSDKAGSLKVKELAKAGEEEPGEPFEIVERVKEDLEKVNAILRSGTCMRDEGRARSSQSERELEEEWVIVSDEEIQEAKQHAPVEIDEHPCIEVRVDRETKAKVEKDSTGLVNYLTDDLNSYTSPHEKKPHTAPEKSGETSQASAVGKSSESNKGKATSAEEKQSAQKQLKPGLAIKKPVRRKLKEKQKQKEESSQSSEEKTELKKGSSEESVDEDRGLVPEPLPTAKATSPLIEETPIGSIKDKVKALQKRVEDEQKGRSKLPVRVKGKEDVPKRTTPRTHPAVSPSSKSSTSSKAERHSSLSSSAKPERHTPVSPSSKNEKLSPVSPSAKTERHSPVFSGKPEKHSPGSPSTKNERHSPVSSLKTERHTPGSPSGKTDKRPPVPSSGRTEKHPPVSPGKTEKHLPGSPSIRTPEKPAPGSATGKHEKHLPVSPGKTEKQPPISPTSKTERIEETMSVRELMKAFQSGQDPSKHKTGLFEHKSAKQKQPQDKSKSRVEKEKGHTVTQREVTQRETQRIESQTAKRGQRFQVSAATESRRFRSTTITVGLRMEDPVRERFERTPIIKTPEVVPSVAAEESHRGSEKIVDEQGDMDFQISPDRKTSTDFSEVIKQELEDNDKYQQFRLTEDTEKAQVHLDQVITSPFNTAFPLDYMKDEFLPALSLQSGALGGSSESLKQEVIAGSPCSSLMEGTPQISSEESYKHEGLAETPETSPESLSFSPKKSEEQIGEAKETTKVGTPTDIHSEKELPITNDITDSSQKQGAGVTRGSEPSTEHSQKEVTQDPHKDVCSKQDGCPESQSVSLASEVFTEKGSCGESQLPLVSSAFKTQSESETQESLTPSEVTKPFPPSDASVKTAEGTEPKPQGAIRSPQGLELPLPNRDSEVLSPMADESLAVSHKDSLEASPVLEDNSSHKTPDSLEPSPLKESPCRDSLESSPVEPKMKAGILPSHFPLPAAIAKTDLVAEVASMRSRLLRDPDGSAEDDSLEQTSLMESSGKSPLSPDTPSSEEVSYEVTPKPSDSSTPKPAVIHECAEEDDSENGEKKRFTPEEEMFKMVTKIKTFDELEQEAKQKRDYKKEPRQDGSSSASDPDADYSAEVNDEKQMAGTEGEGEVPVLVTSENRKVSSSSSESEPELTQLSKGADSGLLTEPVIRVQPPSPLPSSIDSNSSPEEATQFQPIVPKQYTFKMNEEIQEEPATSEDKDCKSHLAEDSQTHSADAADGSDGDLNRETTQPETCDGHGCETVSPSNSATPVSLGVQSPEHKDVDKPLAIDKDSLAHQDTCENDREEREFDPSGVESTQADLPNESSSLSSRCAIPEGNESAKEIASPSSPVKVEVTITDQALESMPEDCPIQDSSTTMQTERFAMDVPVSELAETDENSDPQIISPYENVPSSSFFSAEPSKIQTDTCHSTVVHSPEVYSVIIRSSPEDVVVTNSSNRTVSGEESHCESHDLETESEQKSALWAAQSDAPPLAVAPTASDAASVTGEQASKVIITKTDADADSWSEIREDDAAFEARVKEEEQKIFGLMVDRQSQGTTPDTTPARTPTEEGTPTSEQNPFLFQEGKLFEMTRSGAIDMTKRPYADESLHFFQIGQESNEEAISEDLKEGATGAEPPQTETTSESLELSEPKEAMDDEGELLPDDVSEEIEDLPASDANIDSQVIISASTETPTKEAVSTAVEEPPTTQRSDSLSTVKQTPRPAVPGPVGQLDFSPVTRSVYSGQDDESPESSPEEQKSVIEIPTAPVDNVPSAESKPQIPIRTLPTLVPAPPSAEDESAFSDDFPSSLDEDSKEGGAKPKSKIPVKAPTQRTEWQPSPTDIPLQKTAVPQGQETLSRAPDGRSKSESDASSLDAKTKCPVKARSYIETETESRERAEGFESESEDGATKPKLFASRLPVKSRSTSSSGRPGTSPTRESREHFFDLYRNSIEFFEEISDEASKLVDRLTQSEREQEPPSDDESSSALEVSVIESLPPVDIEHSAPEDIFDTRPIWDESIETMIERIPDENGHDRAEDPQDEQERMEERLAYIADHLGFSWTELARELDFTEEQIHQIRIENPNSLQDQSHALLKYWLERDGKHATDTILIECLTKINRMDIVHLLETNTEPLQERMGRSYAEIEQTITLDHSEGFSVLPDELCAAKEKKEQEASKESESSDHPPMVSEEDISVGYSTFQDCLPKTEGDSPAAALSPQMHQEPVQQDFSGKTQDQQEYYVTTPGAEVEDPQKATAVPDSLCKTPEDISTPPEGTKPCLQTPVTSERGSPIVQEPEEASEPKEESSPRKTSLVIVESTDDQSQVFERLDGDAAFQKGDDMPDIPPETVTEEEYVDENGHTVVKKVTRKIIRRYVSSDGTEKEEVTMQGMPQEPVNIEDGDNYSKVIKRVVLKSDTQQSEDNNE

## C=CC(=O)N1CCN(c2nc(=O)n(-c3c(C)ccnc3C(C)C)c3nc(-c4c(O)cccc4F)c(F)cc23)[C@@H](C)C1 [AMG510]
[1]
  direct LC-MS/MS profiling of modified tryptic peptides: They included enzymes (PLOD3 C691, RPE C5, SPTLC2 C99, UBE2O C370, and TK1 C3)
[2]
  direct LC-MS/MS profiling of modified tryptic peptides: tumor suppressor (PCBP1 C194)
[3]
  direct LC-MS/MS profiling of modified tryptic peptides: multifunctional membrane-binding protein (ANXA2 C9)
[4]
  direct LC-MS/MS profiling of modified tryptic peptides: off-targets that were identified in previous studies (RTN4 C1101 and HMOX2 C282)
[5]
  direct LC-MS/MS profiling of modified tryptic peptides: transporters (RAE1 C106, S100A16C4, VDAC2 C91 and C225)
[6]
  direct LC-MS/MS profiling of modified tryptic peptides: They included enzymes (PLOD3 C691, RPE C5, SPTLC2 C99, UBE2O C370, and TK1 C3)
[7]
  anti-AMG510 peptide IP and LC-MS/MS of heart tissue: Ank2 was modified by AMG510 at Cys3737 in the mouse heart tissue
